Data published in article PMC10739250 (ACS Bio & Med Chem Au, 2023).
≈ marks a conversion by molar mass, not a printed value.

Columns and labels:
[1] = rat hepatocytes, 0.5 ×10^6 cells/mL
physchem [2] = details: thermodynamic from solid
[3] = tested on: SARS-CoV-2/Canada/VIDO 01/2020; assay type: cell-based; details: read-out: EC50 in the presence of the efflux inhibitor CP-100356
physchem [4] = experiment: physchem
in vitro [5] = details: human, microsomes
in vitro [6] = details: hamster, hepatocytes
in vitro [7] = details: human, hepatocytes
[8] = human, pH 7.4

In the case of CC(C)(C)[C@H](NC(=O)C(F)(F)F)C(=O)N1C[C@H]2[C@@H]([C@H]1C(=O)N[C@H](C#N)C[C@@H]1CCNC1=O)C2(C)C [Compound 1, nirmatrelvir], the “hepatocyte stability, t1/2, rat” value [1] is reported as 244.7 min, the solubility thermodynamic (physchem [2]) is reported as 4.79 mM (≈ 2390 µg/mL) and the EC50 [3] is reported as 200 nM. The logD (physchem [4]) was 1.86, the half-life (in vitro [5]) was 40.2 min and the half-life (in vitro [6]) was 57.4 min. For the same compound, the half-life (in vitro [7]) was greater than 434 min, the “amount of metabolite Major” value [8] was 100 and the “amount of metabolite Minor A” value [8] was 5.1 ± 0.8. For the same compound, the “amount of metabolite Minor B” value [8] was 2.3 ± 0.4, the “increase of minor metabolites A and B on deuteration” value [8] was 210% and the “minor sites (Minor A and Minor B), share of total metabolites” value [8] was “less than 10%”.
